The nature of data set [1]: plasma stability. The note with it: rat plasma; for Plasma stability, remaining of the intact test compound: 37° C. In kind it is in vitro ADME. The method, then: Briefly, each tube is added 882 μL of 1:1 diluted rat plasma with phosphate buffer (pH 7.4). 18 μL (100 μM) of DMSO stock solution of the test compound (4, 13 and 15) or positive control compound (Diltiazem) was added to make a final compound concentration 2 μM in the plasma solution and final DMSO content 2%. The mixture was incubated at 37° C. After the incubation at 0, 15, 30, 60, and 120 min time points, aliquots of 50 μL samples were quenched with 100 μL of ice-cold acetonitrile with 25 μM of the internal reference (for HPLC analysis), respectively. The quenched samples were centrifuged at 10,000×g, and the supernatant was analyzed by HPLC. The percentage of remaining intact test compound was calculated by (peak area at the specific time point)/(peak area at 0 min)×100. Every sample was assayed three times.

The target of data set [2] is T1, mGluR4 (Homo sapiens, UniProt Q14833). The data set can be described thus: competitive binding (radioligand replacement) assay with [3H]4 in mGluR4 transfected CHO cells. On the set-up: expressed in transfected cells; host or cells: CHO cells. The following applies: 2 nM [3H]4, read-out: IC50 (nM), affinity to mGluR4. The method, then:
In Vitro mGluR4 Binding Assay. CHO cells expressing mGluR4 were used for all binding assay protocols. For competitive binding, 2 nM of [^3H]4 was used together with increased concentrations of test compounds ranging from 0.01 nM to 10 μM. Each test tube contained 50 000 freshly harvested CHO cells expressing mGluR4 cultured in HAMs cell culture medium with 100 nM of glutamate, penicillin-streptomycin (100 units), and 1 mM G418. [3H]4 (2 nM) was added to the cell extract with and without test compounds on ice and then incubated for 30 min at room temperature. Samples were centrifuged at 1200 rpm for 10 min at 4° C. and washed three times with a cold cell culture medium as a washing buffer. Samples were lysed by adding 100 μL of 0.5% NaOH and heated using a heating block (56° C., 30 min). Samples were cooled with an ice bath and transferred to Solvent-Saver scintillation vials (VWR International LLC.). To obtain binding parameters, the scintillation liquid (PerkinElmer, Optima Gold) was added prior to counting with a scintillation counter (Packard TriCarb Model, 1 min/vial). Nonspecific binding was determined using 10 μM of nonradioactive test compound, and specific binding was determined by extracting the nonspecific binding from total binding. All measurements were done in triplicate and analyzed with GraphPad Prism software (GraphPad Software Inc.).

In data set [3] the target is T1, mGluR4. Briefly: GloSensor cAMP biosensor assay, mGluR4 PAM and agonist activity. On the set-up: expressed in transfected cells. In kind it is cell-based. The procedure: Cell Culture. HEK-293 cells were maintained with complete Dulbecco's modified Eagle's medium (DMEM), which was composed of 10% fetal bovine serum (FBS), 2 mM L-glutamine, 100 units/mL penicillin G, 100 μg/mL streptomycin at 37° C. in the presence of 5% CO2. HEK-293 stable cell lines with tetracycline inducible expression of mGluR1, mGluR2, mGluR4, mGluR6 or mGluR8 were maintained with complete DMEM with Hygromycin B (100 μg/mL), Blasticidin (15 μg/mL) at 37° C. in the presence of 5% CO2.
cAMP assay. The Gi/o coupled receptors (mGluR2, mGluR3, mGluR4, mGluR6 and mGluR8) were tested using cAMP assay. Promega's split luciferase based GloSensor cAMP biosensor technology was used in determining Gi-GPCR mediated cAMP production in live cells. On the cells stably expressing mGluR2, mGluR3, mGluR4, mGluR6 or mGluR8, GloSensor cAMP DNA construct was transfected overnight. Cells were seeded into PLL coated 384-well white clear bottom cell culture plates with complete BME Buffer with Tetracycline (1 μg/mL) at a density of 20,000 cells for another 24 h. The cell medium was removed and then 20 μL of buffer was loaded. […] Luminescence was counted in a Trilux luminescence counter. Data were analyzed with Prizm 5.0 (GraphPad software).
Secondary assays—Dose-response assays. […] For each compound, the results from four replicates were averaged and then either EC50 or IC50 values were calculated by non-linear regression using the 4-parameter logistic equation. […]
In sum, the mGluR4 PAM activity was determined using Promega's split luciferase based GloSensor cAMP biosensor assay (refs. 41-42). mGluR4 is coupling to Gαi protein to inhibit adenylate cyclase, which converts ATP to cAMP, which plays an important role in many signal transduction pathways. […] The mGluR4 PAM activity of 15 was evaluated in presence of EC20 concentration of agonist (1 μM L-SOP) by measuring changes in intracellular cAMP concentration.

Where two headings read alike, the source gives them in different places.

This is an account of results in US20220118117A1, “MODULATORS OF METABOTROPIC GLUTAMATE RECEPTOR 4” (The General Hospital Corporation, priority 2019, published 2022).

T1 sequence (Q14833 33-912): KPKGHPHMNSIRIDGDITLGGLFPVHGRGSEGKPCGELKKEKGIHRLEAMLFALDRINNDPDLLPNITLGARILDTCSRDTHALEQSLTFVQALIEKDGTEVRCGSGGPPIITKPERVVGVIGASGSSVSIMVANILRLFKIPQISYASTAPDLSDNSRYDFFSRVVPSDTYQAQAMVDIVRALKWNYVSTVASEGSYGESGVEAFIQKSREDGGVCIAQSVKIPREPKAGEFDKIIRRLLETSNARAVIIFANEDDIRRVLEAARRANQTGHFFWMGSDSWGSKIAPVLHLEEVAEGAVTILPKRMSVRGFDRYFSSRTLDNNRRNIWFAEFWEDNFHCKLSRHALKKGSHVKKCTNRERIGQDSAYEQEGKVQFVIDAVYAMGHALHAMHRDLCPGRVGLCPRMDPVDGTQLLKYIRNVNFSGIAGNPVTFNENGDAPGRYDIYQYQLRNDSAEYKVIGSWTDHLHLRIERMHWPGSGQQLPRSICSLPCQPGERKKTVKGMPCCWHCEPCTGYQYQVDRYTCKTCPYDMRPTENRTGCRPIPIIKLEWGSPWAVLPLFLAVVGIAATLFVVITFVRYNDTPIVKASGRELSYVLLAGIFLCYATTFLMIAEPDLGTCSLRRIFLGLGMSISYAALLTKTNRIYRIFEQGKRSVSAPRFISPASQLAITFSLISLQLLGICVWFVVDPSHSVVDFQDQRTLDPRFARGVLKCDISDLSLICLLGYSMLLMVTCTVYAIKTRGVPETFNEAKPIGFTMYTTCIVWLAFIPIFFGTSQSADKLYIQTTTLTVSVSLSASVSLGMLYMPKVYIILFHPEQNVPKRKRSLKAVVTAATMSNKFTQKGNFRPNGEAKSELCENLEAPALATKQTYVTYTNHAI

Regarding `[2H]C([2H])(F)Sc1cc(NC(=O)c2ccccn2)ccc1Cl` [Compound 15, N-(4-Chloro-3-((fluoromethyl-d2)thio)phenyl)picolinamide], the “Plasma stability, remaining of the intact test compound” value in data set [1] (0 min) worked out at 100.00 ± 1.88%; in data set [1] (15 min), 93.46 ± 1.96%; in data set [1] (30 min) it was 104.21 ± 2.84%; in data set [1] (60 min), 94.54 ± 5.18%; in data set [1] (120 min), 84.52 ± 10.16%. The “The plasma stability, The intact ± SEM at 120 min (%)” value in data set [1] (120 min) came to 84.5 ± 10.2%. In addition, the IC50 (commonly the point on the concentration scale where inhibition reaches its midpoint) in data set [2] was found to be 3.4 nM. Also, the EC50 (in general, the concentration that produces a half-maximal response) was determined as 2750 nM in data set [3] (agonist mode, cAMP assay, read-out: EC50, mGluR4 agonist activity) and 324 nM in data set [3] (in presence of EC20 concentration of agonist (1 μM L-SOP), read-out: EC50, mGluR4 PAM activity).
